# Experimental data reported in BindingDB's records for doi:10.1021/jm00046a008 (University of Alabama At Birmingham, 1994).
# Molecular target: Carnitine O-acetyltransferase (Columba livia)
# Experiment: Tested against pigeon breast carnitine acyltransferase
row,Ki,SMILES
1,0.024 mM,CC(=O)NC(CC(=O)[O-])C[N+](C)(C)C (configuration not stated) [(2-Acetylamino-3-carboxy-propyl)-trimethyl-ammonium]
2,25 mM,"CC(=O)NC(CC(=O)O)CC(C)(C)C (configuration not stated) [3-Acetylamino-5,5-dimethyl-hexanoic acid anion]"
